Reference: ChEMBL document CHEMBL3885861, “Open TG-GATES”

Species on record: Rattus norvegicus
Assay: Open TG-GATES - Regimen: Single
Assay type: toxicity, organism-based, Sprague-Dawley
Set-up: regimen Single, gender Male, age 6 weeks
Details: in vivo, po, route gavage; for APTT / Bas / Eos / Fbg / Hb / Ht / Lym / MCH / MCHC / MCV / Mono / Neu / PT / Plat / RBC / Ret / WBC: tissue Blood; for KIDNEY_L / KIDNEY_R / KIDNEY_TOTAL: tissue Kidney; for LIVER: tissue Liver; for A/G / ALP / ALT / AST / BUN / CRE / Ca / Cl / DBIL / GLC / IP / K / LDH / Na / PL / RALB / TBIL / TC / TG / TP / gamma-GTP: tissue Plasma
[1] = 600 mg/kg, 3 h, dose level Middle
[2] = 600 mg/kg, 6 h, dose level Middle
[3] = 600 mg/kg, 9 h, dose level Middle
[4] = 600 mg/kg, 24 h, dose level Middle
[5] = 2000 mg/kg, 3 h, dose level High
[6] = 2000 mg/kg, 6 h, dose level High
[7] = 2000 mg/kg, 9 h, dose level High
[8] = 2000 mg/kg, 24 h, dose level High

NNC(=O)c1ccncc1 [ISONIAZID]
TERMINAL_BW [1]: 221.5 g
APTT [1]: 19.8 s
Bas [1]: 0%
Eos [1]: 1%
Fbg [1]: 231 mg/dL
Hb [1]: 13.7 g/dL
Ht [1]: 37.8%
Lym [1]: 72.6%
MCH [1]: 22 pg
MCHC [1]: 36.2%
MCV [1]: 60.8 fL
Mono [1]: 2.4%
Neu [1]: 23.2%
PT [1]: 12.2 s
Plat [1]: 125.7 x10_4/uL
RBC [1]: 622.4 x10_4/ul
Ret [1]: 7.4%
WBC [1]: 67.3 x10_2/uL
KIDNEY_L [1]: 0.9 g
KIDNEY_R [1]: 0.9 g
KIDNEY_TOTAL [1]: 1.9 g
LIVER [1]: 9.6 g
A/G [1]: 1.7
ALP [1]: 950 IU/L
ALT [1]: 39.6 IU/L
AST [1]: 73.6 IU/L
BUN [1]: 9 mg/dL
CRE [1]: 0.4 mg/dL
Ca [1]: 10.3 mg/dL
Cl [1]: 104 meq/L
DBIL [1]: 0.064 mg/dL
GLC [1]: 197.6 mg/dL
IP [1]: 10 mg/dL
K [1]: 3.7 meq/L
LDH [1]: 177.2 IU/L
Na [1]: 141.4 meq/L
PL [1]: 134.8 mg/dL
RALB [1]: 3.6 g/dL
TBIL [1]: 0.1 mg/dL
TC [1]: 78.2 mg/dL
TG [1]: 49.6 mg/dL
TP [1]: 5.7 g/dL
gamma-GTP [1]: 1 IU/L
TERMINAL_BW [2]: 219.2 g
APTT [2]: 18.4 s
Bas [2]: 0%
Eos [2]: 0.8%
Fbg [2]: 223.4 mg/dL
Hb [2]: 13.6 g/dL
Ht [2]: 37.9%
Lym [2]: 78.8%
MCH [2]: 22 pg
MCHC [2]: 36%
MCV [2]: 61.3 fL
Mono [2]: 1.8%
Neu [2]: 17.6%
PT [2]: 12.2 s
Plat [2]: 133.3 x10_4/uL
RBC [2]: 619 x10_4/ul
Ret [2]: 7.6%
WBC [2]: 75.7 x10_2/uL
KIDNEY_L [2]: 1 g
KIDNEY_R [2]: 1 g
KIDNEY_TOTAL [2]: 1.9 g
LIVER [2]: 9.6 g
A/G [2]: 1.6
ALP [2]: 838.6 IU/L
ALT [2]: 27.6 IU/L
AST [2]: 52.2 IU/L
BUN [2]: 9.4 mg/dL
CRE [2]: 0.4 mg/dL
Ca [2]: 10.3 mg/dL
Cl [2]: 104.6 meq/L
DBIL [2]: 0.066 mg/dL
GLC [2]: 210 mg/dL
IP [2]: 9.3 mg/dL
K [2]: 3.6 meq/L
LDH [2]: 202.8 IU/L
Na [2]: 142.8 meq/L
PL [2]: 142.2 mg/dL
RALB [2]: 3.5 g/dL
TBIL [2]: 0.1 mg/dL
TC [2]: 71 mg/dL
TG [2]: 90.4 mg/dL
TP [2]: 5.8 g/dL
gamma-GTP [2]: 1 IU/L
TERMINAL_BW [3]: 219.9 g
APTT [3]: 17.5 s
Bas [3]: 0%
Eos [3]: 0.8%
Fbg [3]: 222.8 mg/dL
Hb [3]: 13.5 g/dL
Ht [3]: 37.4%
Lym [3]: 70.6%
MCH [3]: 21.9 pg
MCHC [3]: 36.1%
MCV [3]: 60.6 fL
Mono [3]: 1.6%
Neu [3]: 26%
PT [3]: 12.3 s
Plat [3]: 116 x10_4/uL
RBC [3]: 616.6 x10_4/ul
Ret [3]: 7.1%
WBC [3]: 71.5 x10_2/uL
KIDNEY_L [3]: 1 g
KIDNEY_R [3]: 1 g
KIDNEY_TOTAL [3]: 2 g
LIVER [3]: 8.8 g
A/G [3]: 1.5
ALP [3]: 752.2 IU/L
ALT [3]: 23.2 IU/L
AST [3]: 44.6 IU/L
BUN [3]: 7.8 mg/dL
CRE [3]: 0.4 mg/dL
Ca [3]: 10.3 mg/dL
Cl [3]: 105 meq/L
DBIL [3]: 0.066 mg/dL
GLC [3]: 200.6 mg/dL
IP [3]: 9 mg/dL
K [3]: 3.8 meq/L
LDH [3]: 203.6 IU/L
Na [3]: 142.6 meq/L
PL [3]: 152.8 mg/dL
RALB [3]: 3.4 g/dL
TBIL [3]: 0.1 mg/dL
TC [3]: 78.2 mg/dL
TG [3]: 74.6 mg/dL
TP [3]: 5.7 g/dL
gamma-GTP [3]: 1 IU/L
TERMINAL_BW [4]: 215.6 g
APTT [4]: 19.7 s
Bas [4]: 0.4%
Eos [4]: 0.8%
Fbg [4]: 218.6 mg/dL
Hb [4]: 14.5 g/dL
Ht [4]: 39.6%
Lym [4]: 86.4%
MCH [4]: 22.4 pg
MCHC [4]: 36.7%
MCV [4]: 61 fL
Mono [4]: 2.4%
Neu [4]: 8.8%
PT [4]: 12.9 s
Plat [4]: 139.5 x10_4/uL
RBC [4]: 649.2 x10_4/ul
Ret [4]: 3.7%
WBC [4]: 85.9 x10_2/uL
KIDNEY_L [4]: 1 g
KIDNEY_R [4]: 1 g
KIDNEY_TOTAL [4]: 2.1 g
LIVER [4]: 9.8 g
A/G [4]: 1.7
ALP [4]: 817.6 IU/L
ALT [4]: 15.2 IU/L
AST [4]: 32.2 IU/L
BUN [4]: 17.8 mg/dL
CRE [4]: 0.4 mg/dL
Ca [4]: 10.6 mg/dL
Cl [4]: 104.4 meq/L
DBIL [4]: 0.06 mg/dL
GLC [4]: 189.2 mg/dL
IP [4]: 8.9 mg/dL
K [4]: 3.9 meq/L
LDH [4]: 202.4 IU/L
Na [4]: 143.4 meq/L
PL [4]: 123.2 mg/dL
RALB [4]: 3.6 g/dL
TBIL [4]: 0.1 mg/dL
TC [4]: 58.6 mg/dL
TG [4]: 69.6 mg/dL
TP [4]: 5.7 g/dL
gamma-GTP [4]: 1 IU/L
TERMINAL_BW [5]: 221 g
APTT [5]: 20.8 s
Bas [5]: 0%
Eos [5]: 1.2%
Fbg [5]: 218.2 mg/dL
Hb [5]: 13.8 g/dL
Ht [5]: 38.4%
Lym [5]: 73.8%
MCH [5]: 22.2 pg
MCHC [5]: 36%
MCV [5]: 61.7 fL
Mono [5]: 2%
Neu [5]: 22.2%
PT [5]: 12.3 s
Plat [5]: 117.2 x10_4/uL
RBC [5]: 621.8 x10_4/ul
Ret [5]: 7.9%
WBC [5]: 51.3 x10_2/uL
KIDNEY_L [5]: 1 g
KIDNEY_R [5]: 1 g
KIDNEY_TOTAL [5]: 1.9 g
LIVER [5]: 9.8 g
A/G [5]: 1.7
ALP [5]: 760.4 IU/L
ALT [5]: 31.4 IU/L
AST [5]: 66.4 IU/L
BUN [5]: 8.8 mg/dL
CRE [5]: 0.4 mg/dL
Ca [5]: 10.4 mg/dL
Cl [5]: 102.4 meq/L
DBIL [5]: 0.062 mg/dL
GLC [5]: 221.8 mg/dL
IP [5]: 10.2 mg/dL
K [5]: 4 meq/L
LDH [5]: 231.8 IU/L
Na [5]: 141.2 meq/L
PL [5]: 136 mg/dL
RALB [5]: 3.6 g/dL
TBIL [5]: 0.1 mg/dL
TC [5]: 72.8 mg/dL
TG [5]: 58.8 mg/dL
TP [5]: 5.7 g/dL
gamma-GTP [5]: 0.8 IU/L
TERMINAL_BW [6]: 217.4 g
APTT [6]: 19.1 s
Bas [6]: 0%
Eos [6]: 0.8%
Fbg [6]: 231 mg/dL
Hb [6]: 13.7 g/dL
Ht [6]: 38.1%
Lym [6]: 68.4%
MCH [6]: 22 pg
MCHC [6]: 36%
MCV [6]: 61 fL
Mono [6]: 1.6%
Neu [6]: 28.2%
PT [6]: 12.2 s
Plat [6]: 128.8 x10_4/uL
RBC [6]: 625.4 x10_4/ul
Ret [6]: 8.1%
WBC [6]: 60.7 x10_2/uL
KIDNEY_L [6]: 1 g
KIDNEY_R [6]: 1 g
KIDNEY_TOTAL [6]: 1.9 g
LIVER [6]: 9.6 g
A/G [6]: 1.5
ALP [6]: 774.2 IU/L
ALT [6]: 27.8 IU/L
AST [6]: 43.8 IU/L
BUN [6]: 8.8 mg/dL
CRE [6]: 0.5 mg/dL
Ca [6]: 10.4 mg/dL
Cl [6]: 104.2 meq/L
DBIL [6]: 0.062 mg/dL
GLC [6]: 222.4 mg/dL
IP [6]: 9.2 mg/dL
K [6]: 3.7 meq/L
LDH [6]: 185.6 IU/L
Na [6]: 141.8 meq/L
PL [6]: 151.2 mg/dL
RALB [6]: 3.5 g/dL
TBIL [6]: 0.1 mg/dL
TC [6]: 78.2 mg/dL
TG [6]: 47.8 mg/dL
TP [6]: 5.9 g/dL
gamma-GTP [6]: 1 IU/L
TERMINAL_BW [7]: 217 g
APTT [7]: 18.6 s
Bas [7]: 0.2%
Eos [7]: 1%
Fbg [7]: 230 mg/dL
Hb [7]: 14 g/dL
Ht [7]: 38.5%
Lym [7]: 70.4%
MCH [7]: 21.7 pg
MCHC [7]: 36.3%
MCV [7]: 59.8 fL
Mono [7]: 1.8%
Neu [7]: 26%
PT [7]: 12.5 s
Plat [7]: 131.2 x10_4/uL
RBC [7]: 644 x10_4/ul
Ret [7]: 7%
WBC [7]: 61.3 x10_2/uL
KIDNEY_L [7]: 1 g
KIDNEY_R [7]: 1 g
KIDNEY_TOTAL [7]: 2.1 g
LIVER [7]: 9 g
A/G [7]: 1.7
ALP [7]: 823.6 IU/L
ALT [7]: 23.8 IU/L
AST [7]: 40.8 IU/L
BUN [7]: 8.8 mg/dL
CRE [7]: 0.4 mg/dL
Ca [7]: 10.5 mg/dL
Cl [7]: 104 meq/L
DBIL [7]: 0.066 mg/dL
GLC [7]: 211 mg/dL
IP [7]: 9.2 mg/dL
K [7]: 3.6 meq/L
LDH [7]: 195.4 IU/L
Na [7]: 142.4 meq/L
PL [7]: 151.8 mg/dL
RALB [7]: 3.7 g/dL
TBIL [7]: 0.1 mg/dL
TC [7]: 76.2 mg/dL
TG [7]: 78 mg/dL
TP [7]: 5.9 g/dL
gamma-GTP [7]: 1 IU/L
TERMINAL_BW [8]: 212.5 g
APTT [8]: 18.8 s
Bas [8]: 0.2%
Eos [8]: 0.8%
Fbg [8]: 196 mg/dL
Hb [8]: 14.7 g/dL
Ht [8]: 40.4%
Lym [8]: 75.4%
MCH [8]: 22.4 pg
MCHC [8]: 36.4%
MCV [8]: 61.6 fL
Mono [8]: 3.4%
Neu [8]: 19.6%
PT [8]: 14.4 s
Plat [8]: 152.8 x10_4/uL
RBC [8]: 656.4 x10_4/ul
Ret [8]: 2.8%
WBC [8]: 41.4 x10_2/uL
KIDNEY_L [8]: 1.1 g
KIDNEY_R [8]: 1.1 g
KIDNEY_TOTAL [8]: 2.2 g
LIVER [8]: 9.5 g
A/G [8]: 1.8
ALP [8]: 761.4 IU/L
ALT [8]: 12 IU/L
AST [8]: 25.8 IU/L
BUN [8]: 14 mg/dL
CRE [8]: 0.5 mg/dL
Ca [8]: 10.1 mg/dL
Cl [8]: 103.8 meq/L
DBIL [8]: 0.06 mg/dL
GLC [8]: 205.4 mg/dL
IP [8]: 8.4 mg/dL
K [8]: 3.9 meq/L
LDH [8]: 203.8 IU/L
Na [8]: 143 meq/L
PL [8]: 114.2 mg/dL
RALB [8]: 3.5 g/dL
TBIL [8]: 0.1 mg/dL
TC [8]: 47 mg/dL
TG [8]: 90 mg/dL
TP [8]: 5.5 g/dL
gamma-GTP [8]: 0.8 IU/L
